Data: publication PMC12362796, “Bilirubin Targeting WNK1 to Alleviate NLRP3‐Mediated Neuroinflammation” (Advanced Science, 2025)

How the values were obtained:
TRPM2 channels = system: TRPM2 channels; set-up: method as in PMID 36921602; conditions: activation of TRPM2 channels; cited from earlier work
WNK1 (191–491) = target: T1, WNK1 (191–491) (Homo sapiens, UniProt Q9H4A3); assay: MST, EGFP-tagged WNK1 truncation 191–491; format: binding; conditions: WNK1 191–491, 15 min, HEK293T lysates
T1 construct: different lengths of WNK1 truncations (1–491, 1–190, 191–491, 491–2382); expressed in transfected cells; host or cells: HEK293T
From the text: (§1) To further validate these findings, we constructed GFP‐tagged fusion proteins with different lengths of WNK1 truncations (1–491, 1–190, 191–491, 491–2382) based on the WNK1 domains (Figure 3E) and analyzed their binding capacity with bilirubin using MST analysis.^[ [29] ^]
(§2) All WNK1 clones were derived from the original untagged hWNK1 cDNA (NM_018979), which was modified and subcloned into the pcDNA3.1, referred to as “full‐length WNK1” throughout this study. Truncated constructs, including 1–190aa, 191–491aa, 1–491aa, and 491–2382aa fragments, were generated by PCR using the full‐length template and subsequently ligated into linearized pcDNA3.1 vectors. WNK2 was obtained from Addgene Plasmid #24569, and WNK3 was obtained from Addgene Plasmid #81723. Both were subjected to base modifications and cloned into pcDNA3.1. The WNK4 clone was derived from hWNK4 cDNA (NM_032387.5), modified, and subcloned into the pCMV3‐C‐GFPSpark vector.
(§3) In HEK293T cells, proteins tagged with green fluorescent protein (GFP) were expressed. The cells were lysed using the M‐PER Mammalian Protein Extraction Reagent (cat. no. 78505, Thermo Scientific) supplemented with protease inhibitors. Lysates were centrifuged at 12000 × g for 15 min at 4 °C, and the supernatant containing proteins was diluted 10‐fold with 1x PBST. […]

PPARα = target: PPARα; set-up: method as in PMID 37390966, PMID 34067839; conditions: liver and adipose tissue; cited from earlier work
WNK1 = target: T2, WNK1 (Homo sapiens, UniProt Q9H4A3); assay: CETSA-Western blotting in SH-SY5Y cells; format: cell-based; conditions: 6 µM in serum-free medium vs DMSO, denaturation at different temperatures, soluble fraction
T2 construct: endogenous in cells; host or cells: SH-SY5Y
Experimental: To validate these findings, SH‐SY5Y cells were incubated in a serum‐free medium with bilirubin (6 µM) or an equivalent amount of DMSO as the control, followed by protein denaturation at different temperatures (Figure 1A).
Cells or tissues were lysed by grinding in RIPA buffer (cat. no. PC101; Epizyme Biotech) supplemented with a protease inhibitor cocktail (cat. no. 5872S; Cell Signaling Technology) at 4 °C. The lysate was subsequently centrifuged at 16000 × g for 30 min at 4 °C and the resulting supernatant was collected. The total protein concentration was determined using the Pierce BCA Protein Assay Kit (cat. no. 23 225, Thermo Fisher Scientific). The samples were denatured in a Protein Sample Loading Buffer (cat. no. LT101; Epizyme Biotech) at 95 °C and subjected to SDS‐polyacrylamide gel electrophoresis. Following electrophoresis, the proteins were transferred onto a nitrocellulose membrane (cat. no. HATF00010; Millipore) using a transfer buffer composed of 25 mM Tris, 190 mM glycine, and 20% methanol. Membranes were blocked with blocking buffer for western blotting (cat. no. P0252; Beyotime Biotechnology) at room temperature for 15 min, followed by overnight incubation with the primary antibody at 4 °C. After primary antibody incubation, the membranes were washed and incubated with secondary antibody at room temperature for 1 h. […]

WNK1 (491–2382) = target: T3, WNK1 (491–2382) (Homo sapiens, UniProt Q9H4A3); assay: MST, EGFP-tagged WNK1 truncation 491–2382; format: binding; conditions: WNK1 491–2382 (non-kinase segment), 15 min, HEK293T lysates
T3 construct: different lengths of WNK1 truncations (1–491, 1–190, 191–491, 491–2382); expressed in transfected cells; host or cells: HEK293T
From the text: as §1, §2, §3

hWNK3 = target: T4, hWNK3 (Homo sapiens, UniProt Q9BYP7); assay: MST, WNK kinase family member WNK3; format: binding
T4 construct: host or cells: HEK293T
Experimental: To validate the direct binding of bilirubin to WNK1, we performed a Microscale Thermophoresis (MST) analysis, which assesses the binding capacity of a compound by measuring the movement of proteins over a microscopic temperature gradient.^[ [26], [27] ^] We overexpressed full‐length WNK1 fused with Green Fluorescent Protein (GFP) in HEK‐293 cells, incubated the lysates with bilirubin at varying dilutions, and subjected them to precise MST measurements in capillaries. […] Furthermore, biliverdin, a structurally similar intermediate product generated before bilirubin formation, was used as a control.
as §2
In HEK293T cells, proteins tagged with green fluorescent protein (GFP) were expressed. […]

[1] = system: OSR1 and SPAK phosphorylation; assay: Western blotting of OSR1 and SPAK phosphorylation in hippocampus; format: cell-based, mouse
From the text: To further investigate the impact of bilirubin on WNK1 kinase activity, we generated hippocampal neuron‐specific Wnk1 knockout mice. Given that conventional Wnk1 knockout mice are embryonically lethal, we employed the CRISPR/Cas9 method to create mice carrying the floxed Wnk1 gene. Then we crossed Thy1‐Cre mice with Wnk1^flox/flox mice to generate hippocampal neuron‐specific Wnk1 knockout mice. We examined the effects of bilirubin on the phosphorylation of WNK1 downstream targets, Ste20‐related proline alanine‐rich kinase (SPAK), and oxidative stress‐responsive kinase 1 (OSR1), in the hippocampus of Wnk1^flox/flox and Wnk1^flox/flox,Thy1‐Cre mice. Upon bilirubin treatment, phosphorylation of OSR1 and SPAK was elevated in the hippocampus of Wnk1^flox/flox mice. […] These findings indicate that the effect of bilirubin on OSR1 and SPAK phosphorylation is WNK1‐dependent (Figure 4B). To rule out the potential effects of osmolarity on the phosphorylation of WNK1, OSR1, and SPAK, we measured the osmolarity of different bilirubin concentrations.
Cells or tissues were lysed by grinding in RIPA buffer (cat. no. PC101; Epizyme Biotech) supplemented with a protease inhibitor cocktail (cat. no. 5872S; Cell Signaling Technology) at 4 °C. […] The total protein concentration was determined using the Pierce BCA Protein Assay Kit (cat. no. 23 225, Thermo Fisher Scientific). […]

T4 sequence (Q9BYP7 whole entry): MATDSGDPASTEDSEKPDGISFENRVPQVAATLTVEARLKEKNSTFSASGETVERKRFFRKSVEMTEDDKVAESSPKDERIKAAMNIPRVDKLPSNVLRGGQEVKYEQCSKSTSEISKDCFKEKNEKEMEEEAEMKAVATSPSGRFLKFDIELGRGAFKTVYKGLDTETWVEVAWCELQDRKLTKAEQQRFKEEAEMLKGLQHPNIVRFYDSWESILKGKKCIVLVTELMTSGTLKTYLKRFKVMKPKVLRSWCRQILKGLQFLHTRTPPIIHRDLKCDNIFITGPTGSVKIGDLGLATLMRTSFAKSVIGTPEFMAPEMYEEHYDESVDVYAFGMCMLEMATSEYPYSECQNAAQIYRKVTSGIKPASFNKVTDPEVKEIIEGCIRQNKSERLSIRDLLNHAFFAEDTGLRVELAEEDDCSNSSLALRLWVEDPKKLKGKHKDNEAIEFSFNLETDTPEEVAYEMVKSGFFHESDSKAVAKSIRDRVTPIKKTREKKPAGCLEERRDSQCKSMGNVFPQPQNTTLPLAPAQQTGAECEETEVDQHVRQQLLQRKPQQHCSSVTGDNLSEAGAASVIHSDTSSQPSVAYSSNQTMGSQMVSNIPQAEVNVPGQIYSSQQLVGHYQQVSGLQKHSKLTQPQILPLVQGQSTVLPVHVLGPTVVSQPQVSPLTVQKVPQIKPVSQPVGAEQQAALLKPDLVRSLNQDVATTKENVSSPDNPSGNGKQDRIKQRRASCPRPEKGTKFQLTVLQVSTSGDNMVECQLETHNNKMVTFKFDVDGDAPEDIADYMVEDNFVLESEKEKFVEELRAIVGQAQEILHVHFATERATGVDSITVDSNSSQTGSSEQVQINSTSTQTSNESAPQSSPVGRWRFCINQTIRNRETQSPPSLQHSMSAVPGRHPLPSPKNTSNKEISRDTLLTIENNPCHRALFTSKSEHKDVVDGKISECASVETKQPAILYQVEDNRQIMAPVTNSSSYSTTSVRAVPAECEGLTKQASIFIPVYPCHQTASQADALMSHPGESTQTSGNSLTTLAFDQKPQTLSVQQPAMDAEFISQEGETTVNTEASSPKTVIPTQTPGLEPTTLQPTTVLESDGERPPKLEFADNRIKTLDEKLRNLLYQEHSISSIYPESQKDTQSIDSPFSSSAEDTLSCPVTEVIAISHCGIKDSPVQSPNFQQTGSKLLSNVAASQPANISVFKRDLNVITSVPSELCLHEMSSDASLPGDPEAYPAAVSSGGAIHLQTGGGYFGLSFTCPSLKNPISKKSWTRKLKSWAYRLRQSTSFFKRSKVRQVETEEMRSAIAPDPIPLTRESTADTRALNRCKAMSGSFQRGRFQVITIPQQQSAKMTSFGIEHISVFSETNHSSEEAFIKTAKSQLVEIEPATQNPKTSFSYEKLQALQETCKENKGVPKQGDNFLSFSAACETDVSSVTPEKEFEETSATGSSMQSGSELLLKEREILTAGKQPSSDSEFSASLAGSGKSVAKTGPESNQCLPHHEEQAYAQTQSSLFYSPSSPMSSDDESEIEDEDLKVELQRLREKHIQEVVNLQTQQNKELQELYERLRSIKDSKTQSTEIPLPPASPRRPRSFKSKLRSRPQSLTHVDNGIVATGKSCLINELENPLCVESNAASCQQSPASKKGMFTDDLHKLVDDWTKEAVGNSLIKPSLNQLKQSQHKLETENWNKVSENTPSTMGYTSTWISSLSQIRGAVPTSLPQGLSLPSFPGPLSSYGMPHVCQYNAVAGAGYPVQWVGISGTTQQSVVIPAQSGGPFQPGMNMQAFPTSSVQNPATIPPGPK
T1 sequence (Q9H4A3 191-491): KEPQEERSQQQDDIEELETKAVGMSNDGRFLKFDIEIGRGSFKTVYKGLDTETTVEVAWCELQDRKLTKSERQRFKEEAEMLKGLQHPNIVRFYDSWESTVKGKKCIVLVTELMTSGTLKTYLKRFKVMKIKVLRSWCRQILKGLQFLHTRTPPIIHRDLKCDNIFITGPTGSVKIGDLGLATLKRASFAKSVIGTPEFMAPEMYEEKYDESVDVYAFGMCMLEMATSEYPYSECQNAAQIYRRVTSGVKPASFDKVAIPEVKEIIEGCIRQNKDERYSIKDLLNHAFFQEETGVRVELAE
T2 sequence (Q9H4A3 whole entry): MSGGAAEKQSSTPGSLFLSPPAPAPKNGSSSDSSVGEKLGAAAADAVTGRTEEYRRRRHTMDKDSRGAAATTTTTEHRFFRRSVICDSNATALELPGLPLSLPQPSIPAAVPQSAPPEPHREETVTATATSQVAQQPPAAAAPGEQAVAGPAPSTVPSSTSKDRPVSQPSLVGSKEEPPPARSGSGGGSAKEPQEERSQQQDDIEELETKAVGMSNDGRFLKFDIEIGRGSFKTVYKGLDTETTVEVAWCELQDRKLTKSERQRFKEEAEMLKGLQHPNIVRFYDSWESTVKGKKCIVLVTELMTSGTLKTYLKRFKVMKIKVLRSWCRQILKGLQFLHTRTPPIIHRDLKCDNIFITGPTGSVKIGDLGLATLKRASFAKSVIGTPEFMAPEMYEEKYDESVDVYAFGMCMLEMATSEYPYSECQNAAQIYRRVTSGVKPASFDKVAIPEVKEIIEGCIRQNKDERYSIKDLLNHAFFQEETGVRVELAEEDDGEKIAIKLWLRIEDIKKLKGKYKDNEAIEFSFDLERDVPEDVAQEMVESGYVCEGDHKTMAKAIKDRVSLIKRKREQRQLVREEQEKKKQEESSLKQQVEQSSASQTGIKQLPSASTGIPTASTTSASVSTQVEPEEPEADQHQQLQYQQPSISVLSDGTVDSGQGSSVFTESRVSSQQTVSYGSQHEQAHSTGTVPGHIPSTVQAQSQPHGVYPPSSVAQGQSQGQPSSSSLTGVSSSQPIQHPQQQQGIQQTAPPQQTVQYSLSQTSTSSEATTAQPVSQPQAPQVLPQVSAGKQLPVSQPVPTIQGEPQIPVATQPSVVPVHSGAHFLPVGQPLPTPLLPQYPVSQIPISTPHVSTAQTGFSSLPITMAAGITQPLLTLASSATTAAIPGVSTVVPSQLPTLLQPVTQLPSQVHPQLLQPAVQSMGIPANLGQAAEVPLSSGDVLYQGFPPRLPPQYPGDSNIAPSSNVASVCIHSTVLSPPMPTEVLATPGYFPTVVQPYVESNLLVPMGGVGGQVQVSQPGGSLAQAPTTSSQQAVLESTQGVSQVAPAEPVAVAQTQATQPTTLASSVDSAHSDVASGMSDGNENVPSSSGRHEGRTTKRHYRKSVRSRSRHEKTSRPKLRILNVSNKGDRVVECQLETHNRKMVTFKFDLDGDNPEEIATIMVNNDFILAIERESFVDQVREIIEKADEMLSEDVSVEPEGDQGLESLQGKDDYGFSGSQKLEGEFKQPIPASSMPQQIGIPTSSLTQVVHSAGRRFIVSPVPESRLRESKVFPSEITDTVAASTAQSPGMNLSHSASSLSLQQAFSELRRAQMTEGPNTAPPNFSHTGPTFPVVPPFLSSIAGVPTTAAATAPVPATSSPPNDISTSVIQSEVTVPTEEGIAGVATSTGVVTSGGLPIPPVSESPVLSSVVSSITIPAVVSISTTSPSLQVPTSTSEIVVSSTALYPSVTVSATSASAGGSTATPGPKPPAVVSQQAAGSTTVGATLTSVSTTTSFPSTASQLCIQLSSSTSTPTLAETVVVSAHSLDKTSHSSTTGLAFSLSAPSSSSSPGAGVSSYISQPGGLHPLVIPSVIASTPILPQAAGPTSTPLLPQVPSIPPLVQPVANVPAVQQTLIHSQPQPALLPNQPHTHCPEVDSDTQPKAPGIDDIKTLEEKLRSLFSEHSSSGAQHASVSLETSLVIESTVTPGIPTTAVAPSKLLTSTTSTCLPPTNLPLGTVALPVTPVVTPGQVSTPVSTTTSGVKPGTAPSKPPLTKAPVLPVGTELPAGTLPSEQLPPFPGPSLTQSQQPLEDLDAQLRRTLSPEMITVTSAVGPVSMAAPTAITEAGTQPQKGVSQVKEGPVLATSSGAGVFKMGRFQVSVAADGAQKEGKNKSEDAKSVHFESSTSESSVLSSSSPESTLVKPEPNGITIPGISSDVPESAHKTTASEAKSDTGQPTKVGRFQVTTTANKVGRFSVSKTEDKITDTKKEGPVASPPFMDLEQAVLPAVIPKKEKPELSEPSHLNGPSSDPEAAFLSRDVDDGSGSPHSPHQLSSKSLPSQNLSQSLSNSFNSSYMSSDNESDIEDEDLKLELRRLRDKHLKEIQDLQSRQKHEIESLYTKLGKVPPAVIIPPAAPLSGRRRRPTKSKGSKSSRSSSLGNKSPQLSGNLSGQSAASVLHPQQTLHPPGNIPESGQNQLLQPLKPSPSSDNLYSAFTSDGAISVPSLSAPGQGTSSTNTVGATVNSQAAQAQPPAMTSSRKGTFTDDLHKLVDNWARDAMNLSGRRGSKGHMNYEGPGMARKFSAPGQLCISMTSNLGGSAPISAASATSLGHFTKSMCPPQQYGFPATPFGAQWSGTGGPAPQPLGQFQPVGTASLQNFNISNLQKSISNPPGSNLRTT

Kd (WNK1 (191–491)): 28 nM | thermal stability of WNK1 (WNK1): enhanced thermal stability | Kd (WNK1 (491–2382)): 3190 nM | Kd (hWNK3): 760 nM
Compound: C=CC1=C(C)/C(=C/c2[nH]c(Cc3[nH]c(/C=C4\NC(=O)C(C)=C4C=C)c(C)c3CCC(=O)O)c(CCC(=O)O)c2C)NC1=O [bilirubin, Bilirubin]
EC50 (TRPM2 channels): 1900 nM | Kd (PPARα): 5130 nM | phosphorylation of OSR1 and SPAK ([1]; hippocampus of Wnk1flox/flox mice): elevated | phosphorylation of OSR1 and SPAK ([1]; hippocampus of Wnk1flox/flox,Thy1-Cre mice): minimal impact
